According to article PMC4409337, “Immucillins Impair Leishmania (L.) infantum chagasi and Leishmania (L.) amazonensis Multiplication In Vitro” (PLoS ONE, 2015):
Like-named read-outs stand apart in the source and are kept apart here.

Tested on: L. (L.) infantum chagasi promastigotes
Test: In vitro growth of promastigotes in FBS supplemented Schneider's insect medium
Type: cell-based, Leishmania (L.) infantum chagasi
Conditions: Leishmania infantum
Text: The strain of Leishmania (L.) infantum chagasi MHOM/BR/1974/PP75 was obtained from the Leishmania Type Culture Collection (Fundacão Oswaldo Cruz, Rio de Janeiro, RJ, Brazil) and the strain of Leishmania (L.) amazonensis (MHOM/BR/1975/Josefa) was kindly given by Professor Rosâ[…] from Universidade Federal do Rio de Janeiro. Promastigotes were maintained by weekly transfers in screw-capped glass tubes containing Schneider's insect medium (Sigma Aldrich, MO, USA), pH 7.0, supplemented with 10% Fetal Bovine Serum (FBS) at 26°C. […] Log phase promastigotes of L. (L.) infantum chagasi and L. […] Promastigotes were recorded in a Neubauer chamber after 24, 48, 72 and 96 hours of incubation at 26°C. […] The concentration of adenosine in Schneider s insect serum supplemented medium was assessed by HPLC using a C-18 reverse-phase column as described.

In the case of Nc1ncnc2c(C3N[C@H](CO)[C@@H](O)[C@H]3O)c[nH]c12 (stereo partly shown) [IA], the IC50 (drugs added at 0, 24 and 48 h, after 48h, read-out: IC50 on promastigote growth, daily addition) is reported as 3.6 µM, the IC50 (drugs added at 0, 24 and 48 h, at 72 and 96 h, read-out: IC50 on promastigote growth, daily addition) is reported as < 0.05 µM and the IC50 (single addition at 0 h, evaluated after 48 hours, 26°C, read-out: IC50 (CI 95%) on L. (L.) infantum chagasi promastigotes in vitro growth) is reported as 23.9 µM. For the same molecule, the inhibition at 500 µM (500 μM, after 96 h of culture, read-out: percent inhibition on L. (L.) infantum chagasi promastigote growth) was 78%.
